Experimental data from patent EP4458353A1, “ANTICARIOGENIC SYNERGETIC COMPOSITION FOR ORAL CARE” (SkyLab AG, priority 2023, dated 2024).
≈ marks a conversion by molar mass, not a printed value. Like-named read-outs stand apart in the source and are kept apart here.

Legend:
Streptococcus mutans = assay: Minimum inhibitory concentration (MIC), serial two-fold dilution with resazurin test; format: cell-based; settings: Streptococcus mutans, S. mutans
S. mutans = settings: naringenin at concentration 200 µg/mL; cited from earlier work
S. mutans biofilms = assay: Biofilm formation on hydroxyapatite disks (CFU in resuspended biofilm); format: cell-based; settings: for %N Control: percentage of S. mutans CFU on the disk in control experiment; for N S.mutans (CFU/mL): resuspended biofilm from hydroxyapatite disks, 64h incubation
Protocol: Example ? 6. Anti-biofilm activity of individual substances selected from naringenin, guava leaf extract, and lysozyme, or the composition thereof, is assessed from the rate of biofilm formation on hydroxyapatite disks, with the use of the following procedure: • 1) Prepare the heart-brain broth (DM106D, Mast Group Ltd., U.K.) and Columbian agar supplemented with defibrinated blood (OOO "GEM" Cat. No BP-023) in accordance with the manufacturer's instruction • 2) All stages of preparation of the bacterial culture suspensions were similar to those described in Example 1. • 3) Prepare saliva, which is required for biofilm formation and provides the bacteria adhesion to the surface of hydroxyapatite disks. […] Centrifuge the collected saliva at 12 000 rpm for 30 minutes at 4°C. Harvest the supernatant into the clean tube and subject to pasteurization at 65°C for 30 minutes followed by one more centrifugation.
The efficacy of saliva pasteurization is assessed from direct inoculation on Columbian blood agar. The plates are incubated under aerobic and anaerobic conditions at 37°C for 72 hours. The saliva is considered sterile if no growth of bacterial and fungal colonies is observed within 72 hours of observation.
Store the saliva at temperature -80 °C before the use. • 4) To form the salivary film on the surface of hydroxyapatite disk put three sterile disks (sterilization by autoclaving at 132 °C for 20 min) in each of 9 Petri dishes 40 mm in diameter abd incubate in 3 mL of the pasteurized saliva at room temperature for 4 hours with gentle shaking on orbital shaker. Then remove the saliva and add 3 mL of nutritive medium containing 1.2 mL of heart-brain broth; 1.2 mL of pasteurized saliva; 0.6 mL of S. mutans suspension at concentration of 10^6 CFU/mL into the Petri dish. The formation of S. mutans biofilm on the disk surface is achieved at 37°C under the atmosphere of 5 % CO2 in the environment, with gentle shaking on orbital shaker for 16 hours. • 5) After 16-hour incubation remove old nutritive medium from the dishes and add a fresh portion of heart-brain broth containing S. mutans suspension and the pasteurized saliva. Add the active substances selected from naringenin, guava leaf extract and lysozyme or combination thereof to final concentration 0.1 or 1.0 mg/mL. Repeat the procedure of medium replacement twice daily within […] and 8 h after the first change. • 6) To remove the biofilm formed in the disk surface take the disks away from Petri dishes after the incubation for 2 days and rinse in the large volume of PBS (pH 7.2). Then place the disks into sterile Petri dishes with 3 mL of PBS (pH 7.2) and shake vigorously on the orbital shaker for 30 minutes. […]

[1] = tested on: Streptococcus mutans No 22081; assay: Growth of planktonic culture in liquid nutritive medium (CFU count after 5 h); format: cell-based; settings: S. mutans planktonic culture; 1 mg/mL; 5 h incubation
Protocol: Example ? 3. Antibacterial activity of naringenin, guava leaf extract and lysozyme was assessed from the growth pattern of the reference strain Streptococcus mutans No 22081 (UNU Collection under I. I. Mechnikov Research Institute if Vaccines and sera) in liquid nutritive medium according to the procedure: • 1) Prepare the heart-brain broth (DM106D, Mast Group Ltd., U.K.) and Columbian agar supplemented with defibrinated blood (OOO "GEM" Cat. No BP-023) in accordance with the manufacturer's instruction. • 2) Using microbiological loop prepare the suspension (at concentration 1.5·10^8 CFU/mL) of 24 hour agar culture of S. mutans in the sterile buffered saline (BS) under visual control with McFarland standard 0.5. […] Prepare the composition of naringenin 0.33 mg/mL, lysozyme 0.33 mg/mL, and guava leaf extract 0.33 mg/mL. • 4) Put the plate with the samples into the incubator with 5% CO2 atmosphere, and incubate at 37°C for 5 h on shaking apparatus. • 5) After the 5 h incubation reinoculate the agar nutritive medium with the planktonic S. mutans culture to count CFU per 1 mL of medium. • 6) Perform optical density (OD) measurements using multimodal microplate reader at the wavelength 620 nm before the incubation (OD0) and then after the culture growth for 5 h ODt=5). […]

- MIC (Streptococcus mutans; 24 h at 37 °C, read-out: MIC value in individual replicate Replicate 1): > 1600 µg/mL
- MIC (Streptococcus mutans; 24 h at 37 °C, read-out: MIC value in individual replicate Replicate 2): > 1600 µg/mL
- MIC (Streptococcus mutans; 24 h at 37 °C, read-out: MIC value in individual replicate Replicate 3): 800 µg/mL (≈ 2940 µM)
- MIC (Streptococcus mutans; 24 h at 37 °C, read-out: MIC value in individual replicate Replicate 4): 400 µg/mL (≈ 1470 µM)
- MIC (Streptococcus mutans; 24 h at 37 °C, read-out: MIC value in individual replicate Replicate 5): 800 µg/mL (≈ 2940 µM)
- MIC (Streptococcus mutans; median of 5 replicates, read-out: MIC Median value): 800 µg/mL (≈ 2940 µM)
Compound: O=C1C[C@@H](c2ccc(O)cc2)Oc2cc(O)cc(O)c21 [Naringenin, naringenin]
- biofilm formation (S. mutans): virtually completely inhibited
- %N Control (S. mutans biofilms; Csubstance 0.1 mg/mL): 66.7%
- N S.mutans (CFU/mL) (S. mutans biofilms; Csubstance 0.1 mg/mL): 2.8·10^6 CFU/mL
- %N Control (S. mutans biofilms; Csubstance 1.0 mg/mL): 50.0%
- N S.mutans (CFU/mL) (S. mutans biofilms; Csubstance 1.0 mg/mL): 2.1·10^6 CFU/mL
- % of CFU obtained for control [1]: 4.8%
- ∑ CFU, mL [1]: 4.3x10^7 CFU, mL
